Results from US20260234217A1, “USE OF BMP RECEPTOR ALK1 INHIBITORS IN OSTEOARTHRITIS THERAPIES” (The Regents of the University of California, priority 2023, published 2026).
“Also recorded” adds a separate entry of the source.

Test system: subchondral bone plate
Assay: Subchondral bone plate analysis in DMM mice
Format: in vivo, mouse
Details: after DMM surgery
Excerpt: Dissected knee joints underwent Micro-CT analysis using the Skyscan 1172 in vivo μCT scanner (Bruker micro-CT, Kontich, Belgium) at 55 kV and 181 μA, with a resolution of 10 μm. The raw data was then translated into two-dimensional cross-sectional gray scale image slices using NRecon (Bruker microCT, Kontich, Belgium). Structural parameters were then acquired from the two-dimensional images using a CT Analyzer (CT-AN, v1.10.9.0, Bruker microCT, Kontich, Belgium), including bone volume fraction (BV, mm3). The total knee osteophyte volume from the end of the distal femur to the end of the proximal tibia was compared between knees that underwent sham surgery, DMM surgery treated with PBS, DMM surgery treated with BMP-KI, or DMM surgery treated with ALK1-Fc. Average osteophyte volume was analyzed with Prism 9 Software (GraphPad) using two-way ANOVA and Tukey's multiple comparisons test post-hoc. MicroCT and data analysis was performed by an experienced investigator blinded to genotype/treatment. For each experimental group, five joint sections per animal were analyzed from the medial compartment. […] All quantifications were conducted in Fiji is Just ImageJ (FIJI, version 2.9.0). Quantified subchondral bone thickness was analyzed with Prism 9 Software (GraphPad) using two-way ANOVA and Tukey's multiple comparisons test post-hoc.

## COc1cc(-c2cc(-c3ccc(N4CCNCC4)cc3)cnc2C)cc(OC)c1OC [LDN-214117]
Week 8, microCT
  total volume of the subchondral plates: no significant impact
Week 8, listed as BMP-KI
  thickness (thickening) of the subchondral bone plate: no significant impact; also recorded: no observed effect
